From US20060009520A1, “Retinoid-based methods for altering macrophage cholesterol” (priority 2004, published 2006)

What was measured:
RARα protein = assay: Western blot of nuclear RARα in RARγ-deficient macrophages; assay type: cell-based, mouse; conditions: TTNPB treatment
Method: Nuclear protein extracts from tissues and macrophages were isolated according to the following method. Tissue samples and cells were first homogenized on ice and then lysed in lysis buffer (10 mM Tris [pH 7.5], 3 mM MgCl2, 10 mM NaCl, 0.5% NP-40) containing protease inhibitor cocktail. The nucleus was then pelleted by centrifugation for 10 min at 6,000× g, immediately resuspended in a nucleus suspension buffer (250 mM Tris [pH 8.0], 60 mM KCl, I mM dithiothrietol), and then rotated for 1 h. After centrifugation for 5 min at 6000× g, the solubilized nuclear proteins were separated by electrophoresis with a 4 to 15% gradient gel (Bio-Rad), transferred to nitrocellulose membrane (Trans-Blot transfer medium; Bio-Rad), and probed with anti-RARγ and anti-RARα antibodies (Santa Cruz Biotechnology, Santa Cruz, Calif.) and their respective horseradish peroxidase-conjugated secondary antibodies according to the manufacturer's recommendations. The intensities of the bands were quantified by using ImageQuant and normalized to (β-actin.

ABCA1 protein = assay: Western blot of ABCA1 protein in mouse peritoneal macrophages; assay type: cell-based; conditions: 24 h
Method: Protein extracts from macrophages were prepared by lysing the cells in modified radioimmunoprecipitation assay buffer (50 mM Tris, 150 mM NaCl, 1 mM EDTA. 1% Triton X-100) containing a protease inhibitor cocktail (Complete EDTA Free; Roche). Protein content in the extracts was determined by using the DC protein assay (Bio-Rad, Hercules, Calif.). Equal amounts of protein (40 to 50 μg) were separated by electrophoresis with 4 to 15% acrylamide gradient gels (Bio-Rad) and then transferred to nitrocellulose membrane (Trans-Blot Transfer Medium; Bio-Rad). Membranes were probed with anti-ABCA1 antibody (Novus Biologicals, Littleton, Colo.) and anti-β-actin antibody (Sigma) according to the manufacturer's recommendations. Immunoblots were developed by using a chemiluminescent detection system (Super Signal West Pico chemiluminescent substrate; Pierce, Rockford, Ill.).

FXR = biological target: T1, FXR (Mus musculus, UniProt Q60641); conditions: cited from earlier work
T1 sequence (Q60641 1-488): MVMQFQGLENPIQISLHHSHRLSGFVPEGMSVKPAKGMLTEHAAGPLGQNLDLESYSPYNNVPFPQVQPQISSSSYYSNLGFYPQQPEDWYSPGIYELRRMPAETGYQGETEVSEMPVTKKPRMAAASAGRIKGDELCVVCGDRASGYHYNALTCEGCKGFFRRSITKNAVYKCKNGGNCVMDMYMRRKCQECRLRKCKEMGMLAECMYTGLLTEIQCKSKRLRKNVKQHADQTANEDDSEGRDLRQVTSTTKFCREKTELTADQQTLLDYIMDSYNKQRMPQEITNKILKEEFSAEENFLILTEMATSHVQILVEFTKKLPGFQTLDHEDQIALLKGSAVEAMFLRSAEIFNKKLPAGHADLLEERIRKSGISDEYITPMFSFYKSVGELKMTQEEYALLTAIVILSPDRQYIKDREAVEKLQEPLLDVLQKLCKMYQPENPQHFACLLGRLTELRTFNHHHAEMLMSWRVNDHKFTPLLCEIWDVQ

## C/C(=C\c1ccc(C(=O)O)cc1)c1ccc2c(c1)C(C)(C)CCC2(C)C [TTNPB, 4-[E-2-5,6.7.8-tetrahydro-5,5,8,8-tetramethyl-2-naphthalenyl-l-propenyl]benzoic acid]
RARα protein
  decrease of nuclear RARα: ~2 fold
ABCA1 protein
  ABCA1 protein levels: accumulation of ABCA1 protein
FXR
  FXR activation: activates FXR at relatively high concentrations
